According to patent US20100216886A1, “POLYMORPHS OF N2-(1,1'-BIPHENYL-4-YLCARBONYL)-N1-[2-(4-FLUOROPHENYL)-1,1-DIMETHYLETHYL]-L-ALPHA-GLUTAMINE” (Wyeth, priority 2006, published 2010):
≈ marks a conversion by molar mass, not a printed value. Entries after “also recorded” stand apart in the source; their conditions may differ. Where a name gives a salt, the structure may show the parent alone. Read-outs that look alike come from different tables or passages of the source. Values belong to the compound of their own block, whether it stands above or below them.

What was measured:
[1] = Polymorphic conversion study in aqueous media (2% Tween 80, water); assay type: physicochemical
Source text: Polymorphic conversion of Form A to Form B was not observed with Sample D in 2% Tween 80 or water.
Polymorph pseudo Form A was obtained from a scaled up preparation of polymorph Form A (Sample E).
The polymorphic conversion appeared to be slower in water than in the 2% Tween suspension, probably due to the lower solubility in water.
DSC data also supported this observation (FIG. 11).

[2] = Dynamic Vapor Sorption (DVS) analysis; assay type: physicochemical; details: room temperature, 6-hour equilibration period
Source text: Sample F was subject to Dynamic Vapor Sorption (DVS) analysis at room temperature. The sample was first analyzed by Karl Fischer (KF) titration containing initial moisture content of 3.7% for the monohydrate form. RH cycling started at 50% relative humidity (RH) to 100% RH and down to 0% RH and then back up to 100% RH. A 3-hour/step equilibration period was found insufficient, so the run was repeated with a 6-hour period, which was still not sufficient.
(§1) As a result, an equilibrium moisture study using desiccators containing saturated salt solutions for humidity control was performed. Sample F was incubated at 0%, 15%, 31%, 66%, 87%, and 100% RH in room temperature for up to 20 days. Samples were periodically assayed by KF titration to give the kinetic profiles. XRD analysis was performed at the end of 20 days. The data is summarized in Table 8 with kinetic and equilibrium data plotted in FIGS. 18 and 19.

[3] = Equilibrium moisture study in desiccators with saturated salt solutions (KF, XRD); assay type: physicochemical; details: Sample F incubated at room temperature, 20 days; listed as sesquihydrate
Method: as §1, with “Sample F was incubated at 0%, 15%, 31%, 66%, 87%, and 100% RH in room temperature for up to 20 days.” left out

[4] = In situ rat perfusion model, metoprolol as reference; assay type: in vivo; design: Papp: dose or concentration left out as unconfirmed
Source text: The permeability was 18.2 nm/sec, which is higher than the 14.5 nm/sec value obtained for metoprolol (Table 13).

[5] = First CACO-2 study, metoprolol as reference; details: human; for recovery: Caco-2, pH 7.4, % Recovery, pH 7.4
[6] = Solubility in water and 2% Tw80 of samples used in toxicological formulation assessments; assay type: physicochemical
Source text: Table 6 summarizes various solid-state properties of samples used in toxicological formulation assessments.

[7] = physchem; details: for solubility at 24 h: aqueous buffer, thermodynamic from solid
Method: The pH solubility profile was generated first with Sample D containing polymorph Form A, and then with Sample F containing polymorph Form B, in HCl/NaOH solutions. After 24 hour equilibration, suspensions were centrifuged and the supernatants assayed by HPLC.
The solubility data was analyzed as a function of pH using the Henderson-Hasselbach equation:
Solubility=S0·[10^(PH-pKa)+1],
where S0 is the intrinsic solubility of the free acid.

[8] = Solid state stability; assay type: physicochemical
[9] = Second CACO-2 study, propranolol as reference; assay type: in vitro ADME; details: human, Caco-2; A → B, apical pH 6, basolateral pH 7, without verapamil
Source text: The second CACO-2 study gave somewhat different results (Table 12). Because metoprolol interferes with the LC/MS assay, propranolol, which has a permeability that is […] metoprolol, was used as the FDA calibration compound. The apical pH was controlled at 6 and basolateral pH at pH 7. In addition, verapamil was used as a competitive inhibitor of the Pgp (P-glycoprotein) transporter. The ratios to propranolol were 1.00 and 0.77 with and without verapamil. […] The B→A/A→B ratios were low at 0.3 and 0.3, with and without verapamil, respectively, indicating again no efflux […].

[10] = Solubility of suspensions in Tox formulation (2% Tween 80 in water) by HPLC; assay type: physicochemical; details: ambient conditions
Method: Suspensions of 10 to 20 mg/mL of compound (I) in a Tox (toxicological) formulation (2% Tween 80 in water) using the polymorphs described above were prepared and equilibrated at ambient conditions. The stability of the suspensions was evaluated visually and the solubility of the suspensions was determined by HPLC.
Mobile Phase: A=900 mL/100 mL/0.1 mL Water/Acetonitrile/TFA
B=100 mL/900 mL/0.1 mL Water/Acetonitrile/TFA

[11] = Thermal stress of polymorph Form B (vacuum drying, oven); assay type: physicochemical
Method: Polymorph Form B (Sample F) was stressed with vacuum drying at 40° C.

[12] = Solid state stability; assay type: physicochemical; details: 40° C./75% RH, open and closed vials, 3 months
Method: Sample F containing polymorph Form B was further investigated at 40° C./75% RH using open and closed vials for 3 months. […] Therefore, the monohydrate needs to be stored in hermetically sealed containers in order to prevent conversion to the sesquihydrate.

[13] = vacuum drying at 40° C., 36 hours
[14] = 1-month storage at 40° C./75% RH

SMILES: CC(C)(Cc1ccc(F)cc1)NC(=O)[C@H](CCC(=O)O)NC(=O)c1ccc(-c2ccccc2)cc1 [Sample A, N^2-(1,1′-biphenyl-4-ylcarbonyl)-N^1-[2-(4-fluorophenyl)-1,1-dimethylethyl]-L-α-glutamine]
- Degradation products of compound (I) by HPLC in converted materials ([1]; after conversion in 2% Tween 80 or water): do not contain degradation products

SMILES: CC(C)(Cc1ccc(F)cc1)NC(=O)[C@H](CCC(=O)O)NC(=O)c1ccc(-c2ccccc2)cc1 [Form C, N^2-(1,1′-biphenyl-4-ylcarbonyl)-N^1-[2-(4-fluorophenyl)-1,1-dimethylethyl]-L-α-glutamine]
- RH range in which the form is stable (DVS) [2]: 30-100 % RH
- RH range at which the form is present by XRD [3]: 66-100 % RH

- Papp ([4]; in situ rat perfusion model, read-out: permeability): 1.45 ×10⁻⁶ cm/s
- Peff × 10^−1 (μm/sec) ([4]; rat perfusion, 20 μg/mL): 1.45 × 10^−1 μm/sec
- Papp A→B ([5]; Caco-2, pH 7.4): 60.4 ×10⁻⁶ cm/s
- recovery ([5]; A → B): 109%
- recovery ([5]; B → A): 115%
SMILES: COCCc1ccc(OCC(O)CNC(C)C)cc1 (centres unmarked) [Metoprolol, reference compound]

SMILES: CC(C)(Cc1ccc(F)cc1)NC(=O)[C@H](CCC(=O)O)NC(=O)c1ccc(-c2ccccc2)cc1 [Sample D, N^2-(1,1′-biphenyl-4-ylcarbonyl)-N^1-[2-(4-fluorophenyl)-1,1-dimethylethyl]-L-α-glutamine]
- Polymorphic conversion ([1]; 2% Tween 80/water suspension, overnight): not observed; also recorded: did not undergo polymorphic conversion
- Polymorphic conversion / Polymorph Form after stirring ([1]; suspension 100 mg/mL in water, overnight (~18 hr), ambient conditions): not observed; also recorded: did not undergo polymorphic conversion
- Solubility, 2% Tw80 [6]: 0.468 mg/mL (≈ 982 µM)
- pH of 2% Tw80 solubility sample [6]: 5.4
- Solubility, Water [6]: 0.037 mg/mL (≈ 77.6 µM)
- pH of water solubility sample [6]: 5.5
- solubility at 24 h ([7]; Solubility at pH<4): ~4.5 µg/mL (≈ 9.44 µM)
- Chemical stability, solid state ([8]; 14-day storage at room temperature, in temperatures up to 80° C., and in a light box (510 fc)): demonstrated chemical stability

SMILES: CC(C)(Cc1ccc(F)cc1)NC(=O)[C@H](CCC(=O)O)NC(=O)c1ccc(-c2ccccc2)cc1 [sodium salt, N^2-(1,1′-biphenyl-4-ylcarbonyl)-N^1-[2-(4-fluorophenyl)-1,1-dimethylethyl]-L-α-glutamine]
- Solubility at pH 12.8 ([7]; HCl/NaOH solutions, 24 hour equilibration, HPLC): 4.7 mg/mL

- Papp A→B [9]: 62.6 ×10⁻⁶ cm/s
SMILES: CC(C)NCC(O)COc1cccc2ccccc12 (centres unmarked) [Propranolol, reference compound]

SMILES: CC(C)(Cc1ccc(F)cc1)NC(=O)[C@H](CCC(=O)O)NC(=O)c1ccc(-c2ccccc2)cc1 [Sample 2, N^2-(1,1′-biphenyl-4-ylcarbonyl)-N^1-[2-(4-fluorophenyl)-1,1-dimethylethyl]-L-α-glutamine]
- solubility [10]: 245.0 µg/mL (≈ 514 µM)

SMILES: CC(C)(Cc1ccc(F)cc1)NC(=O)[C@H](CCC(=O)O)NC(=O)c1ccc(-c2ccccc2)cc1 [Sample F, N^2-(1,1′-biphenyl-4-ylcarbonyl)-N^1-[2-(4-fluorophenyl)-1,1-dimethylethyl]-L-α-glutamine]
- Solubility, 2% Tw80 [6]: 0.217 mg/mL (≈ 455 µM)
- pH of 2% Tw80 solubility sample [6]: 5.9
- Solubility, Water [6]: 0.099 mg/mL (≈ 208 µM)
- pH of water solubility sample [6]: 7.6
- Conversion of monohydrate to anhydrate ([11]; 100° C. oven, 23 hours): convert completely to the anhydrate
- Conversion of monohydrate to anhydrate [11, 13]: did not convert to the anhydrate
- Water retained [11, 13]: 2.95%
- Chemical stability, solid state [12]: chemically stable
- solubility at 24 h ([7]; Solubility at pH<4 (below HPLC detection limit)): < 0.011 µg/mL
- Polymorphic conversion (DSC and XRD) [8, 14]: polymorphic conversion from Form B to Form C
- Water content [8, 14]: 5.4%

SMILES: CC(C)(Cc1ccc(F)cc1)NC(=O)[C@H](CCC(=O)O)NC(=O)c1ccc(-c2ccccc2)cc1 [Sample 4, N^2-(1,1′-biphenyl-4-ylcarbonyl)-N^1-[2-(4-fluorophenyl)-1,1-dimethylethyl]-L-α-glutamine]
- solubility ([10]; 2% Tween 80 in water (Tox formulation), aqueous with cosolvent or surfactant or cyclodextrin, thermodynamic from solid, read-out: Solubility): 221 µg/mL (≈ 464 µM)

SMILES: CC(C)(Cc1ccc(F)cc1)NC(=O)[C@H](CCC(=O)O)NC(=O)c1ccc(-c2ccccc2)cc1 [G, N^2-(1,1′-biphenyl-4-ylcarbonyl)-N^1-[2-(4-fluorophenyl)-1,1-dimethylethyl]-L-α-glutamine]
- Solubility, 2% Tw80 [6]: 0.127 mg/mL (≈ 266 µM)
- pH of 2% Tw80 solubility sample [6]: 5.9

SMILES: CC(C)(Cc1ccc(F)cc1)NC(=O)[C@H](CCC(=O)O)NC(=O)c1ccc(-c2ccccc2)cc1 [Sample 1, N^2-(1,1′-biphenyl-4-ylcarbonyl)-N^1-[2-(4-fluorophenyl)-1,1-dimethylethyl]-L-α-glutamine]
- solubility [10]: 201.9 µg/mL (≈ 424 µM)

SMILES: CC(C)(Cc1ccc(F)cc1)NC(=O)[C@H](CCC(=O)O)NC(=O)c1ccc(-c2ccccc2)cc1 [Sample 7, N^2-(1,1′-biphenyl-4-ylcarbonyl)-N^1-[2-(4-fluorophenyl)-1,1-dimethylethyl]-L-α-glutamine]
- solubility [10]: 216.4 µg/mL (≈ 454 µM)
